According to patent US7326790B2, “Diphenylisoxazole compounds and hydro isomers thereof” (Rigel Pharmaceuticals, Inc., priority 2003, dated 2008):
pIC50: −log10 of the molar value.

Test system: HCV replicon (5-2 Luc replicon-comprising cells)
Experiment: HCV replicon assay (luciferase)
Type: cell-based
Conditions: Hepatitis C virus; 5-2 Luc replicon cells, 24 hours with compound, luciferase activity
Source text: In one embodiment, the inhibitory activity of the compounds can be confirmed in a replicon assay that assesses the ability of a test compound to block or inhibit HCV replication in replicon cells. One example of a suitable replicon assay is the liver cell-line Huh 7-based replicon assay described in Lohmann et al., 1999, Science 285:110-113. A specific example of this replicon assay which utilizes luciferase translation is provided in the Examples Section. In one embodiment of this assay, the amount of test compound that yields a 50% reduction in translation as compared to a control cell (IC50) may be determined.
The inhibitory activity of certain exemplary compounds of the invention was confirmed using an HCV replicon assay. The HCV replicon can include such features as the HCV 5′ untranslated region including the HCV IRES, the HCV 3′ untranslated region, selected HCV genes encoding HCV polypeptides, selectable markers, and a reporter gene such as luciferase, GFP, etc. In the assay, actively dividing 5-2 Luc replicon-comprising cells (obtained from Ralf Bartenschlager; see Lohmann et al., 1999, Science 285:110-113) were seeded at a density of between about 5,000 and 7,500 cells/well onto 96 well plates (about 90 μl of cells per well) and incubated at 37° C. and 5% CO2 for 24 hours. Then, the test compound (in a volume of about 10 μl) was added to the wells at various concentrations and the cells were incubated for an additional 24 hours before luciferase assay. Briefly, the Bright-Glo reagent was diluted 1:1 with PBS and 100 μl of diluted reagent was added to each well. After 5 min of incubation at room temperature, luciferin emission was quantified with a luminometer. In this assay, the amount of test compound that yielded a 50% reduction in luciferase activity (IC50) was determined.

SMILES | pIC50
O=C(Nc1cccc(-c2cc(-c3c(Cl)cccc3Cl)on2)c1)C(Cl)Cl [Compound 39, 2,2-Dichloro-N-[3-[5-(2,6-dichlorophenyl)-3-isoxazolyl]phenyl]Acetamide] | > 5.00
O=C(Nc1ccc(-c2cc(-c3ccccc3Cl)no2)cc1)C(Cl)Cl [Compound 55, 2,2-Dichloro-N-[4-[3-(2-chlorophenyl)-5-isoxazolyl]phenyl]Acetamide] | ≥ 5.00
O=C(Nc1ccc(-c2cc(-c3c(F)cccc3F)no2)cc1)C(Cl)Cl [Compound 59, 2,2-Dichloro-N-[4-[3-(2,6-difluorophenyl)-5-isoxazolyl]phenyl]Acetamide] | ≥ 5.00
